Measurements reported in patent publication EP0341019A2, “Polyether antibiotic” (priority 1988, dated 1989).
In brackets after ≈: the same amount, converted by molar mass.

Assays:
[1] = system: Enterobacter aerogenes EB17; format: cell-based; settings: Klebsiella aerogenes, EB17, 24 h
[2] = system: Eimeria maxima Strain FS-177; assay: anticoccidial feed test in infected chickens, ionophore-sensitive strain; format: in vivo
[3] = effect on growth of uninfected chicks; format: in vivo; settings: Table XXI, Compound ppm r3-r7: 0,8,10,12,14
Excerpt: Newly hatched chickens are raised in a coccidial-free environment for a seven-day period. On the morning of the eighth day, the chickens are weighed and assigned to treatment groups.
Each group of chicks (usually 4 or 5 chicks per group) is housed in a battery cage during the experiment. A constant lighting schedule and ad libitum access to feed (each experiment contains non-medicated and drug-medicated treatments) and water are provided for the chicks in each battery. Two days after the experiment is initiated, chicks that are designated to be infected are crop-intubated with a pure suspension of coccidial oocysts. The oocyst dosage used in each test is designed to produce clinical coccidiosis in infected nonmedicated animals.
After an additional seven-day growth period, the experiment is terminated. Each group of chicks is weighed, and the amount of feed consumed by each group is determined. From these measurements, final bird weights and efficiency of feed utilization are calculated. All birds are then sacrificed, and the intestine. and cecum are examined for the presence of coccidial-induced lesions.

[4] = system: Fusobacterium necrophorum 6054A; format: cell-based; settings: 24 h
Klebsiella sp. = format: cell-based; settings: 24 h
[5] = system: Bacteroides thetaiotaomicron 1438; format: cell-based; settings: 24 h
[6] = system: Streptococcus faecium X66; format: cell-based; settings: Enterococcus faecium, X66, 24 h
[7] = system: Haemophilus influenzae C.L.; format: cell-based; settings: 24 h
[8] = system: Herpes simplex viruses (HSV I); assay: antiviral tissue-culture test; format: cell-based, Herpes simplex virus
[9] = system: Haemophilus influenzae 76; format: cell-based; settings: Haemophilus influenzae, 76, 24 h
[10] = system: Peptococcus asaccharolyticus 1302; format: cell-based; settings: Peptoniphilus asaccharolyticus, 1302, 24 h
[11] = system: Eimeria acervulina Strain FS-316 And E. tenella Strain FS-456; assay: anticoccidial feed test in infected chickens, ionophore-resistant strains; format: in vivo
[12] = system: Bacteroides vulgatis 1211; format: cell-based; settings: Bacteroides, 1211, 24 h
E. maxima Strain LIT-626 = assay: anticoccidial feed test in infected chickens, ionophore-resistant strain; format: in vivo
[13] = system: Pseudomonas aeruginosa X528; format: cell-based; settings: X528, 24 h
Brazil influenza virus = format: cell-based; settings: tissue culture
[14] = system: Streptococcus faecalis 2041; format: cell-based; settings: Enterococcus faecalis, 2041, 24 h
Treponema hyodysenteriae = assay: growth inhibition of swine dysentery agent; format: cell-based
Excerpt: In another aspect the A82810 compounds are useful in the treatments of swine dysentery. A82810 inhibits the growth of Treponema hyodysenteriae, a causative agent of swine dysentery, at levels as low as 1.56 mcg/mL. A preferred method of administration to swine is by incorporation of an appropriate amount of an A82810 compound into the feed ration or drinking water. An appropriate amount will relate to whether the treatment is to prevent or to cure infection. Usually, a lower concentration of active compound is needed to prevent infection than is required for to eliminate infection in animals already afflicted. In general, amounts in the range of from about 20 to about 100 grams of A82810 compound per ton of feed are effective to prevent infection. Amounts in the range of from about 100 to about 500 g of A82810 compound per ton of feed are recommended for treating swine suffering from dysentery. These amounts provide from about 1 to about 5 mg/kg of body weight per day (prophylactic treatment) or from about 5 to about 25 mg/kg of body weight per day (treatment of infected animal). When added to the drinking water, amounts of from about 0.04 to about 0.2 g (prophylactic) or from about 0.2 to about 1 g (therapeutic) of A82810 compound per gallon of water are recommended.

[15] = system: Streptococcus pneumoniae Park 1; format: cell-based; settings: 24 h
Serratia marcescens X99 = format: cell-based; settings: X99, 24 h
[16] = system: Staphylococcus epidermidis 270; format: cell-based; settings: Staphylococcus epidermidis, 270, 24 h
[17] = system: Fusobacterium symbiosum 1470; format: cell-based; settings: Fusobacterium, 1470, 24 h
[18] = system: Peptostreptococcus intermedius 1624; format: cell-based; settings: Peptostreptococcus, 1624, 24 h
Shigella sonnei = format: cell-based; settings: 24-hour incubation
Excerpt: The formula 1 compounds (A82810 compounds) have antibacterial and anticoccidial activity. A82810 compounds are especially active against anaerobic bacteria. […]

Compound: CC[C@@H](O)[C@]1(C)C[C@H](C)[C@@](O)([C@H]2C[C@H](C)[C@H]([C@]3(C)C[C@@H](O[C@H]4CC[C@H](OC)[C@@H](C)O4)[C@H]([C@]4(C)CC[C@@]5(O[C@H]([C@@H](C)[C@@H](OC)[C@H](C)C(=O)O)[C@H](C)[C@@H](OC)[C@H]5C)O4)O3)O2)O1 [Example A82810]
- MIC [1]: 8 µg/mL (≈ 9.49 µM)
- AVERAGE INTESTINAL LESION SCORES ([2]; 2 ppm): 1.9
- AVERAGE INTESTINAL LESION SCORES ([2]; 6 ppm): 0.6
- WEIGHT GAIN, PERCENT OF CONTROL ([2]; 6 ppm): 108% OF CONTROL
- AVERAGE INTESTINAL LESION SCORES ([2]; 10 ppm): 0.2
- WEIGHT GAIN, PERCENT OF CONTROL ([2]; 10 ppm): 102% OF CONTROL
- WEIGHT GAIN, PERCENT OF CONTROL ([3]; A82810 1.25 ppm): 98% OF CONTROL
- WEIGHT GAIN, PERCENT OF CONTROL ([3]; A82810 1.5 ppm): 101% OF CONTROL
- WEIGHT GAIN, PERCENT OF CONTROL ([3]; A82810 1.75 ppm): 105% OF CONTROL
- WEIGHT GAIN, PERCENT OF CONTROL ([3]; A82810 2.0 ppm): 99% OF CONTROL
- MIC [4]: ≤ 0.25 µg/mL
- MIC (Klebsiella sp.): > 128 µg/mL
- MIC [5]: 8 µg/mL (≈ 9.49 µM)
- MIC [6]: 1 µg/mL (≈ 1.19 µM)
- MIC [7]: 128 µg/mL (≈ 152 µM)
- active at levels as low as [8]: 1.56 µg/mL
- MIC [9]: 64 µg/mL (≈ 75.9 µM)
- MIC [10]: ≤ 0.25 µg/mL
- TOTAL LESION SCORE ([11]; 0.5 ppm): 8.7
- WEIGHT GAIN, PERCENT OF CONTROL ([11]; 0.5 ppm): 87% OF CONTROL
- TOTAL LESION SCORE ([11]; 1 ppm): 9.3
- WEIGHT GAIN, PERCENT OF CONTROL ([11]; 1 ppm): 89% OF CONTROL
- TOTAL LESION SCORE ([11]; 1.5 ppm): 7.7
- WEIGHT GAIN, PERCENT OF CONTROL ([11]; 1.5 ppm): 95% OF CONTROL
- TOTAL LESION SCORE ([11]; 2 ppm): 9.6
- WEIGHT GAIN, PERCENT OF CONTROL ([11]; 2 ppm): 93% OF CONTROL
- AVERAGE CECAL LESION SCORES ([11]; 2.5 ppm): 3.2
- AVERAGE INTESTINAL LESION SCORES ([11]; 2.5 ppm): 2.3
- WEIGHT GAIN, PERCENT OF CONTROL ([11]; 2.5 ppm): 81% OF CONTROL
- AVERAGE CECAL LESION SCORES ([11]; 3 ppm): 2.9
- AVERAGE INTESTINAL LESION SCORES ([11]; 3 ppm): 3.3
- WEIGHT GAIN, PERCENT OF CONTROL ([11]; 3 ppm): 77% OF CONTROL
- AVERAGE CECAL LESION SCORES ([11]; 3.5 ppm): 3.2
- AVERAGE INTESTINAL LESION SCORES ([11]; 3.5 ppm): 3.0
- WEIGHT GAIN, PERCENT OF CONTROL ([11]; 3.5 ppm): 85% OF CONTROL
- AVERAGE CECAL LESION SCORES ([11]; 5 ppm): 2.3
- AVERAGE INTESTINAL LESION SCORES ([11]; 5 ppm): 1.3
- WEIGHT GAIN, PERCENT OF CONTROL ([11]; 5 ppm): 95% OF CONTROL
- AVERAGE CECAL LESION SCORES ([11]; 6 ppm): 3.2
- AVERAGE INTESTINAL LESION SCORES ([11]; 6 ppm): 1.7
- WEIGHT GAIN, PERCENT OF CONTROL ([11]; 6 ppm): 98% OF CONTROL
- MIC [12]: 4 µg/mL (≈ 4.74 µM)
- AVERAGE INTESTINAL LESION SCORES (E. maxima Strain LIT-626; 1.25 ppm): 3.7
- WEIGHT GAIN, PERCENT OF CONTROL (E. maxima Strain LIT-626; 1.25 ppm): 99% OF CONTROL
- AVERAGE INTESTINAL LESION SCORES (E. maxima Strain LIT-626; 1.5 ppm): 3.3
- WEIGHT GAIN, PERCENT OF CONTROL (E. maxima Strain LIT-626; 1.5 ppm): 102% OF CONTROL
- AVERAGE INTESTINAL LESION SCORES (E. maxima Strain LIT-626; 1.75 ppm): 4.0
- WEIGHT GAIN, PERCENT OF CONTROL (E. maxima Strain LIT-626; 1.75 ppm): 101% OF CONTROL
- AVERAGE INTESTINAL LESION SCORES (E. maxima Strain LIT-626; 2 ppm): 3.3
- WEIGHT GAIN, PERCENT OF CONTROL (E. maxima Strain LIT-626; 2 ppm): 94% OF CONTROL
- MIC [13]: 2 µg/mL (≈ 2.37 µM)
- active at a level of (Brazil influenza virus): 250 µg/mL
- MIC [14]: 1 µg/mL (≈ 1.19 µM)
- inhibits the growth at levels as low as (Treponema hyodysenteriae): 1.56 µg/mL
- MIC [15]: 1 µg/mL (≈ 1.19 µM)
- MIC (Serratia marcescens X99): > 128 µg/mL
- MIC [16]: 1 µg/mL (≈ 1.19 µM)
- MIC [17]: 0.5 µg/mL (≈ 0.593 µM)
- MIC [18]: ≤ 0.25 µg/mL
- MIC (Shigella sonnei): 2 µg/mL (≈ 2.37 µM)
